Tests used:
Test in all cases: cells
[1] = system: CTV-1; type: functional, cell-based, Homo sapiens; settings: Homo sapiens, CTV-1;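 further: growth inhibition of the cell line, read out with a cell viability assay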
Description: SANGER: Inhibition of human CTV-1 cell growth in a cell viability assay.

[2] = system: D283 Med; type: functional, cell-based, Homo sapiens; settings: Homo sapiens, D283 Med
Description: SANGER: Inhibition of human D-283MED cell growth in a cell viability assay.

[3] = system: ES8; type: functional, cell-based, Homo sapiens; settings: Homo sapiens, ES8;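 further: growth inhibition of human ES8 cells, read out with a cell viability assay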
Description: SANGER: Inhibition of human ES8 cell growth in a cell viability assay.

[4] = system: EOL1; type: functional, cell-based, Homo sapiens; settings: Homo sapiens, EOL1;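 further: growth inhibition of EoL-1 cells, read out by a cell viability assay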
Description: SANGER: Inhibition of human EoL-1-cell cell growth in a cell viability assay.

[5] = system: GB-1; type: functional, cell-based, Homo sapiens; settings: Homo sapiens, GB-1;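 further: growth of GB-1 cells judged by a viability assay, IC50 marks the concentration inhibiting growth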
Description: SANGER: Inhibition of human GB-1 cell growth in a cell viability assay.

[6] = system: GI-ME-N; type: functional, cell-based, Homo sapiens; settings: Homo sapiens, GI-ME-N;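 further: growth inhibition of human GI-ME-N cells, read out with a cell viability assay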
Description: SANGER: Inhibition of human GI-ME-N cell growth in a cell viability assay.

[7] = system: GR-ST; type: functional, cell-based, Homo sapiens; settings: Homo sapiens, GR-ST
Description: SANGER: Inhibition of human GR-ST cell growth in a cell viability assay.

[8] = system: HCE-4; type: functional, cell-based; settings: Homo sapiens;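 further: cell viability assay measuring inhibition of growth in the human HCE-4 cell line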
Description: SANGER: Inhibition of human HCE-4 cell growth in a cell viability assay.

[9] = system: HCE-T; type: functional, cell-based, Homo sapiens; settings: Homo sapiens, HCE-T;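 further: cell viability assay read-out, reporting inhibition of HCE-T cell growth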
Description: SANGER: Inhibition of human HCE-T cell growth in a cell viability assay.

[10] = system: HD-MY-Z; type: functional, cell-based, Homo sapiens; settings: Homo sapiens, HD-MY-Z;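 further: growth inhibition of HD-MY-Z cells, read out with a cell viability assay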
Description: SANGER: Inhibition of human HD-MY-Z cell growth in a cell viability assay.

[11] = system: JVM-3; type: functional, cell-based, Homo sapiens; settings: Homo sapiens, JVM-3;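 further: growth inhibition of human JVM-3 cells, read out with a cell viability assay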
Description: SANGER: Inhibition of human JVM-3 cell growth in a cell viability assay.

[12] = system: K5; type: functional, cell-based, Homo sapiens; settings: Homo sapiens, K5
Description: SANGER: Inhibition of human K5 cell growth in a cell viability assay.

[13] = system: KGN; type: functional, cell-based, Homo sapiens; settings: Homo sapiens, KGN;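 further: growth inhibition of KGN cells, read out with a cell viability assay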
Description: SANGER: Inhibition of human KGN cell growth in a cell viability assay.

[14] = system: KNS-42; type: functional, cell-based; settings: Homo sapiens;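 further: growth inhibition of KNS-42 cells, read out with a cell viability assay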
Description: SANGER: Inhibition of human KNS-42 cell growth in a cell viability assay.

[15] = system: KS-1; type: functional, cell-based; settings: Homo sapiens;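 further: growth inhibition of KS-1 cells, read out with a cell viability assay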
Description: SANGER: Inhibition of human KS-1 cell growth in a cell viability assay.

[16] = system: KURAMOCHI; type: functional, cell-based, Homo sapiens; settings: Homo sapiens, KURAMOCHI;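 further: growth inhibition of KURAMOCHI cells, read out with a cell viability assay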
Description: SANGER: Inhibition of human KURAMOCHI cell growth in a cell viability assay.

[17] = system: KY821; type: functional, cell-based, Homo sapiens; settings: Homo sapiens, KY821;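 further: growth inhibition of human KY821 cells, read out by a cell viability assay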
Description: SANGER: Inhibition of human KY821 cell growth in a cell viability assay.

[18] = system: LAMA-84; type: functional, cell-based, Homo sapiens; settings: Homo sapiens, LAMA-84;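 further: growth inhibition of LAMA-84 cells, read out with a cell viability assay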
Description: SANGER: Inhibition of human LAMA-84 cell growth in a cell viability assay.

[19] = system: LC-2-ad; type: functional, cell-based, Homo sapiens; settings: Homo sapiens, LC-2-ad;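 further: growth inhibition of human LC-2-ad cells, read out with a cell viability assay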
Description: SANGER: Inhibition of human LC-2-ad cell growth in a cell viability assay.

[20] = system: LNCaP-Clone-FGC; type: functional, cell-based, Homo sapiens; settings: Homo sapiens, LNCaP-Clone-FGC
Description: SANGER: Inhibition of human LNCaP-Clone-FGC cell growth in a cell viability assay.

[21] = system: LU-134-A; type: functional, cell-based, Homo sapiens; settings: Homo sapiens, LU-134-A
Description: SANGER: Inhibition of human LU-134-A cell growth in a cell viability assay.

[22] = system: LU-139; type: functional, cell-based, Homo sapiens; settings: Homo sapiens, LU-139
Description: SANGER: Inhibition of human LU-139 cell growth in a cell viability assay.

[23] = system: MHH-PREB-1; type: functional, cell-based, Homo sapiens; settings: Homo sapiens, MHH-PREB-1;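 further: cell viability assay measuring inhibition of proliferation of human MHH-PREB-1 cells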
Description: SANGER: Inhibition of human MHH-PREB-1 cell growth in a cell viability assay.

[24] = system: MMAC-SF; type: functional, cell-based; settings: Homo sapiens;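 further: growth inhibition of human MMAC-SF cells, read out with a cell viability assay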
Description: SANGER: Inhibition of human MMAC-SF cell growth in a cell viability assay.

[25] = system: MN-60; type: functional, cell-based, Homo sapiens; settings: Homo sapiens, MN-60;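 further: growth inhibition of the MN-60 cell line, determined with a cell viability assay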
Description: SANGER: Inhibition of human MN-60 cell growth in a cell viability assay.

[26] = system: MS-1; type: functional, cell-based, Homo sapiens; settings: Homo sapiens, MS-1;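 further: growth inhibition of MS-1 cells, read out by cell viability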
Description: SANGER: Inhibition of human MS-1 cell growth in a cell viability assay.

[27] = system: MZ7-mel; type: functional, cell-based, Homo sapiens; settings: Homo sapiens, MZ7-mel;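 further: growth inhibition of human MZ7-mel cells, measured by a cell viability assay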
Description: SANGER: Inhibition of human MZ7-mel cell growth in a cell viability assay.

[28] = system: NB13; type: functional, cell-based, Homo sapiens; settings: Homo sapiens, NB13;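 further: cell viability readout measuring growth inhibition of human NB13 cells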
Description: SANGER: Inhibition of human NB13 cell growth in a cell viability assay.

[29] = system: NB6; type: functional, cell-based, Homo sapiens; settings: Homo sapiens, NB6;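 further: growth inhibition of NB6 cells, read out by a cell viability assay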
Description: SANGER: Inhibition of human NB6 cell growth in a cell viability assay.

[30] = system: NCI-H1092; type: functional, cell-based, Homo sapiens; settings: Homo sapiens, NCI-H1092;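 further: cell growth inhibition measured with a cell viability assay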
Description: SANGER: Inhibition of human NCI-H1092 cell growth in a cell viability assay.

[31] = system: NCI-H1838; type: functional, cell-based, Homo sapiens; settings: Homo sapiens, NCI-H1838;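 further: growth inhibition of NCI-H1838 cells, determined with a cell viability readout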
Description: SANGER: Inhibition of human NCI-H1838 cell growth in a cell viability assay.

[32] = system: NCI-H526; type: functional, cell-based, Homo sapiens; settings: Homo sapiens, NCI-H526;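 further: growth inhibition of the human NCI-H526 cell line, measured by a cell viability assay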
Description: SANGER: Inhibition of human NCI-H526 cell growth in a cell viability assay.

[33] = system: NCI-H69; type: functional, cell-based, Homo sapiens; settings: Homo sapiens, NCI-H69;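 further: growth inhibition of the cell line, read out with a cell viability assay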
Description: SANGER: Inhibition of human NCI-H69 cell growth in a cell viability assay.

[34] = system: NMC-G1; type: functional, cell-based, Homo sapiens; settings: Homo sapiens, NMC-G1;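 further: growth inhibition of the NMC-G1 cell line, measured with a cell viability read-out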
Description: SANGER: Inhibition of human NMC-G1 cell growth in a cell viability assay.

[35] = system: NOS-1; type: functional, cell-based, Homo sapiens; settings: Homo sapiens, NOS-1;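 further: growth inhibition of the human NOS-1 cell line, read out with a cell viability assay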
Description: SANGER: Inhibition of human NOS-1 cell growth in a cell viability assay.

[36] = system: ONS-76; type: functional, cell-based, Homo sapiens; settings: Homo sapiens, ONS-76;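 further: growth inhibition of human ONS-76 cells, read out with a cell viability assay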
Description: SANGER: Inhibition of human ONS-76 cell growth in a cell viability assay.

[37] = system: SF-126; type: functional, cell-based, Homo sapiens; settings: Homo sapiens, SF-126;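 further: growth inhibition of human SF126 cells, read out with a cell viability assay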
Description: SANGER: Inhibition of human SF126 cell growth in a cell viability assay.

[38] = system: SH-4; type: functional, cell-based; settings: Homo sapiens;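 further: growth inhibition of SH-4 cells, read out with a cell viability assay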
Description: SANGER: Inhibition of human SH-4 cell growth in a cell viability assay.

[39] = system: SJSA-1; type: functional, cell-based, Homo sapiens; settings: Homo sapiens, SJSA-1;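 further: growth inhibition of human SJSA-1 cells, read out through a cell viability measurement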
Description: SANGER: Inhibition of human SJSA-1 cell growth in a cell viability assay.

[40] = system: SK-MEL-2; type: functional, cell-based, Homo sapiens; settings: Homo sapiens, SK-MEL-2;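 further: growth inhibition of human SK-MEL-2 cells measured with a cell viability assay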
Description: SANGER: Inhibition of human SK-MEL-2 cell growth in a cell viability assay.

[41] = system: SW684; type: functional, cell-based, Homo sapiens; settings: Homo sapiens, SW684; read-out: IC50;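 further: growth inhibition of human SW684 cells, measured by a cell viability assay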
Description: SANGER: Inhibition of human SW684 cell growth in a cell viability assay.

[42] = system: 697; type: functional, cell-based, Homo sapiens; settings: Homo sapiens
Description: SANGER: Inhibition of human 697 cell growth in a cell viability assay.

[43] = system: 8-MG-BA; type: functional, cell-based, Homo sapiens; settings: Homo sapiens, 8-MG-BA;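 further: growth inhibition of 8-MG-BA cells, read out with a cell viability assay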
Description: SANGER: Inhibition of human 8-MG-BA cell growth in a cell viability assay.

[44] = system: A101D; type: functional, cell-based, Homo sapiens; settings: Homo sapiens, A101D;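 further: growth inhibition of the cell line, measured with a viability assay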
Description: SANGER: Inhibition of human A101D cell growth in a cell viability assay.

[45] = system: TE-9; type: functional, cell-based, Homo sapiens; settings: Homo sapiens, TE-9;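 further: cell growth inhibition, measured with a cell viability readout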
Description: SANGER: Inhibition of human TE-9 cell growth in a cell viability assay.

[46] = system: TK-10; type: functional, cell-based, Homo sapiens; settings: Homo sapiens, TK-10;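 further: growth inhibition of TK-10 cells, read out in a cell viability assay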
Description: SANGER: Inhibition of human TK10 cell growth in a cell viability assay.

[47] = system: U-266; type: functional, cell-based, Homo sapiens; settings: Homo sapiens, U-266
Description: SANGER: Inhibition of human U-266 cell growth in a cell viability assay.

[48] = system: VA-ES-BJ; type: functional, cell-based, Homo sapiens; settings: Homo sapiens, VA-ES-BJ;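 further: growth inhibition of the VA-ES-BJ cell line, read out by a cell viability assay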
Description: SANGER: Inhibition of human VA-ES-BJ cell growth in a cell viability assay.

[49] = system: CAS-1; type: functional, cell-based, Homo sapiens; settings: Homo sapiens, CAS-1;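 further: growth inhibition of CAS-1 cells, measured with a cell viability assay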
Description: SANGER: Inhibition of human CAS-1 cell growth in a cell viability assay.

[50] = system: CCRF-CEM; type: functional, cell-based, Homo sapiens; settings: Homo sapiens, CCRF-CEM;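 further: inhibition of CCRF-CEM cell growth, measured by a cell viability assay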
Description: SANGER: Inhibition of human CCRF-CEM cell growth in a cell viability assay.

[51] = system: KG-1; type: functional, cell-based, Homo sapiens; settings: Homo sapiens, KG-1;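 further: growth inhibition of KG-1 cells, read out by a cell viability assay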
Description: SANGER: Inhibition of human KG-1 cell growth in a cell viability assay.

COc1ccc(N(C(=O)Oc2c(C)cccc2C)c2ccnc(Nc3ccc(N4CCN(C)CC4)cc3)n2)c(OC)c1
IC50 [1]: < 20 nM | IC50 [2]: > 5120 nM | IC50 [3]: > 5120 nM | IC50 [4]: < 20 nM | IC50 [5]: 1160 nM | IC50 [6]: 3250 nM | IC50 [7]: > 5120 nM | IC50 [8]: > 5120 nM | IC50 [9]: > 5120 nM | IC50 [10]: > 5120 nM | IC50 [11]: > 5120 nM | IC50 [12]: > 5120 nM | IC50 [13]: 1050 nM | IC50 [14]: > 5120 nM | IC50 [15]: 77.6 nM | IC50 [16]: 2240 nM | IC50 [17]: > 5120 nM | IC50 [18]: < 20 nM | IC50 [19]: 20.3 nM | IC50 [20]: > 5120 nM | IC50 [21]: > 5120 nM | IC50 [22]: > 5120 nM | IC50 [23]: > 5120 nM | IC50 [24]: > 5120 nM | IC50 [25]: > 5120 nM | IC50 [26]: > 5120 nM | IC50 [27]: 5090 nM | IC50 [28]: > 5120 nM | IC50 [29]: 1700 nM | IC50 [30]: > 5120 nM | IC50 [31]: > 5120 nM | IC50 [32]: > 5120 nM | IC50 [33]: > 5120 nM | IC50 [34]: > 5120 nM | IC50 [35]: 950 nM | IC50 [36]: > 5120 nM | IC50 [37]: 1730 nM | IC50 [38]: 2120 nM | IC50 [39]: > 5120 nM | IC50 [40]: > 5120 nM | IC50 [41]: 326 nM | IC50 [42]: 3400 nM | IC50 [43]: > 5120 nM | IC50 [44]: > 5120 nM | IC50 [45]: 4390 nM | IC50 [46]: 1080 nM | IC50 [47]: > 5120 nM | IC50 [48]: 463 nM | IC50 [49]: 4400 nM | IC50 [50]: > 5120 nM

O=C1NC(=O)c2c1c(-c1ccccc1Cl)cc1[nH]c3ccc(O)cc3c21
IC50 [1]: > 2000 nM | IC50 [2]: > 2000 nM | IC50 [3]: > 2000 nM | IC50 [4]: > 2000 nM | IC50 [5]: > 2000 nM | IC50 [6]: 1530 nM | IC50 [7]: 975 nM | IC50 [8]: > 2000 nM | IC50 [9]: > 2000 nM | IC50 [11]: 1430 nM | IC50 [12]: > 2000 nM | IC50 [51]: 862 nM | IC50 [13]: 1680 nM | IC50 [14]: > 2000 nM | IC50 [15]: > 2000 nM | IC50 [16]: > 2000 nM | IC50 [17]: > 2000 nM | IC50 [18]: > 2000 nM | IC50 [19]: > 2000 nM | IC50 [20]: > 2000 nM | IC50 [21]: 917 nM | IC50 [22]: > 2000 nM | IC50 [23]: 523 nM | IC50 [24]: > 2000 nM | IC50 [25]: 1200 nM | IC50 [26]: 771 nM | IC50 [27]: > 2000 nM | IC50 [28]: 946 nM | IC50 [29]: > 2000 nM | IC50 [30]: > 2000 nM | IC50 [31]: > 2000 nM | IC50 [32]: > 2000 nM | IC50 [33]: > 2000 nM | IC50 [34]: > 2000 nM | IC50 [35]: > 2000 nM | IC50 [36]: > 2000 nM | IC50 [37]: > 2000 nM | IC50 [38]: 1650 nM | IC50 [39]: > 2000 nM | IC50 [40]: > 2000 nM | IC50 [41]: > 2000 nM | IC50 [42]: 431 nM | IC50 [43]: 1550 nM | IC50 [44]: > 2000 nM | IC50 [45]: > 2000 nM | IC50 [46]: > 2000 nM | IC50 [47]: > 2000 nM | IC50 [48]: 1500 nM | IC50 [49]: > 2000 nM | IC50 [50]: > 2000 nM

Nc1ccccc1NC(=O)c1ccc(CNC(=O)OCc2cccnc2)cc1 [ENTINOSTAT]
IC50 [1]: 1270 nM | IC50 [2]: > 5000 nM | IC50 [3]: 360 nM | IC50 [4]: > 5000 nM | IC50 [5]: 1940 nM | IC50 [6]: 4060 nM | IC50 [7]: 1570 nM | IC50 [9]: 872 nM | IC50 [10]: 1750 nM | IC50 [11]: > 5000 nM | IC50 [12]: 470 nM | IC50 [51]: 1620 nM | IC50 [13]: 2770 nM | IC50 [14]: > 5000 nM | IC50 [15]: 881 nM | IC50 [16]: 1770 nM | IC50 [17]: > 5000 nM | IC50 [18]: 776 nM | IC50 [19]: 537 nM | IC50 [20]: > 5000 nM | IC50 [21]: 571 nM | IC50 [22]: 335 nM | IC50 [23]: 607 nM | IC50 [24]: > 5000 nM | IC50 [25]: 4110 nM | IC50 [26]: > 5000 nM | IC50 [27]: 561 nM | IC50 [28]: 668 nM | IC50 [29]: 3560 nM | IC50 [30]: 2050 nM | IC50 [31]: > 5000 nM | IC50 [32]: 635 nM | IC50 [33]: 801 nM | IC50 [34]: 404 nM | IC50 [35]: 196 nM | IC50 [36]: 582 nM | IC50 [37]: 2330 nM | IC50 [38]: 1020 nM | IC50 [39]: 1520 nM | IC50 [40]: > 5000 nM | IC50 [41]: > 5000 nM | IC50 [42]: 99.8 nM | IC50 [43]: 1290 nM | IC50 [44]: 403 nM | IC50 [45]: 1840 nM | IC50 [46]: 1830 nM | IC50 [47]: 2850 nM | IC50 [48]: > 5000 nM | IC50 [49]: > 5000 nM | IC50 [50]: 747 nM

— ChEMBL document CHEMBL1201861, “Genomics of Drug Sensitity in Cancer screening data, Wellcome Trust Sanger Institute”
